Experimental findings from ChEMBL document CHEMBL1149508, “From arylureas to biarylamides to aminoquinazolines: discovery of a novel, potent TRPV1 antagonist” (Bioorg Med Chem Lett, 2006) are described below.

The term pIC50 denotes −log10 of the IC50, conventionally taken in molar units. A low value points to a large IC50. Usually solubility stands for how much of the substance goes into solution per volume. A lower solubility goes with a poorly soluble substance. A word on the Tmax: it is the time at which the peak concentration occurs. As a reminder, the clearance is a measure of how efficiently the substance is removed, as volume per time. In general, half-life refers to the time needed for the level to fall by half in the phase considered. A word on the bioavailability: it is dose-corrected exposure relative to a reference, in per cent. The low end stands for little systemic uptake, the high end for much systemic uptake.

Data set [1] deals with Transient receptor potential cation channel subfamily V member 1 (Rattus norvegicus, UniProt O35433). Description: Antagonist activity against low pH(5.0-5.5)-activated rat VR1. The class given is functional.
Chain of Transient receptor potential cation channel subfamily V member 1 (Rattus norvegicus, UniProt O35433) (O35433 whole entry): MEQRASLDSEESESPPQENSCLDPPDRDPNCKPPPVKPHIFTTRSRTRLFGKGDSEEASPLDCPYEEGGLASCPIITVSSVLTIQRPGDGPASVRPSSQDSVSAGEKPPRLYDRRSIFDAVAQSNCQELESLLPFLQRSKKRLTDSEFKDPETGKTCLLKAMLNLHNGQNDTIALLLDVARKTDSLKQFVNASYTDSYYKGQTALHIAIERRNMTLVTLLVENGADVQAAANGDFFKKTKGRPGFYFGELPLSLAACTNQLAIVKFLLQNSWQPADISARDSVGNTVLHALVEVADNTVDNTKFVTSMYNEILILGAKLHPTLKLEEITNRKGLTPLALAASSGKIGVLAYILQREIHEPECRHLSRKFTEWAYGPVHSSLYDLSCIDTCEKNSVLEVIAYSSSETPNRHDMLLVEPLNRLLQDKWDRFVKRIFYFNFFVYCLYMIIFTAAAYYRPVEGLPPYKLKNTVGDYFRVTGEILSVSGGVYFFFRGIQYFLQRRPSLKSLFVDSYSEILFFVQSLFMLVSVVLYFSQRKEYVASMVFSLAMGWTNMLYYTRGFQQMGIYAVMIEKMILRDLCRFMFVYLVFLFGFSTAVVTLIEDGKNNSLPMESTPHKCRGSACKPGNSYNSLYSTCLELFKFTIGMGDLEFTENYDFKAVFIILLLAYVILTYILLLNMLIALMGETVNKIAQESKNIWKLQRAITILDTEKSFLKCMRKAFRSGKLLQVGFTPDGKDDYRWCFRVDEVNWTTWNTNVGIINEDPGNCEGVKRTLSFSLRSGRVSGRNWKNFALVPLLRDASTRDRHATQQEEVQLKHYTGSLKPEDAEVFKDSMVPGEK
Data set [2] has as its target T1, Transient receptor potential cation channel subfamily V member 1 (Homo sapiens, UniProt Q8NER1). Nature of the data set: Antagonist activity against capsaicin-activated human VR1 by FLIPR assay. The class given is functional.
Data set [3] in a line: Aqueous solubility at pH 7.4 by HTsol assay. The class given is physicochemical. The note with it: buffer.
Data set [4] is described as follows: Volume of distribution in rat at 3 mg/kg, iv. The class given is ADME, organism-based. Also noted: dose 3 mg/kg, route intravenous. The note with it: in vivo, read-out: Vdss.
A short description of data set [5]: Tmax in rat at 3 mg/kg, iv. The following applies: in vivo. The class given is ADME, organism-based. Also noted: dose 3 mg/kg, route intravenous.
Data set [6] is described as follows: Clearance in rat at 3 mg/kg, iv. The class given is ADME, organism-based. The note with it: in vivo. Further details: dose 3 mg/kg, route intravenous.
Data set [7] is described as follows: Half life in rat at 3 mg/kg, iv. The class given is ADME, organism-based. The following applies: in vivo. Also noted: dose 3 mg/kg, route intravenous.
The nature of data set [8]: Bioavailability in rat at 3 mg/kg, iv. The class given is ADME, organism-based. The following applies: in vivo.
The target of data set [9] is T1, Transient receptor potential cation channel subfamily V member 1. Nature of the data set: Agonist activity at human VR1 expressed in HEK293 cells upto 4 uM. The class given is functional, cell-based.

pIC50: −log10 of the molar value. In brackets after ≈: the same amount, converted by molar mass. Activity calls are given as the source filed them.

T1 sequence (Q8NER1 whole entry): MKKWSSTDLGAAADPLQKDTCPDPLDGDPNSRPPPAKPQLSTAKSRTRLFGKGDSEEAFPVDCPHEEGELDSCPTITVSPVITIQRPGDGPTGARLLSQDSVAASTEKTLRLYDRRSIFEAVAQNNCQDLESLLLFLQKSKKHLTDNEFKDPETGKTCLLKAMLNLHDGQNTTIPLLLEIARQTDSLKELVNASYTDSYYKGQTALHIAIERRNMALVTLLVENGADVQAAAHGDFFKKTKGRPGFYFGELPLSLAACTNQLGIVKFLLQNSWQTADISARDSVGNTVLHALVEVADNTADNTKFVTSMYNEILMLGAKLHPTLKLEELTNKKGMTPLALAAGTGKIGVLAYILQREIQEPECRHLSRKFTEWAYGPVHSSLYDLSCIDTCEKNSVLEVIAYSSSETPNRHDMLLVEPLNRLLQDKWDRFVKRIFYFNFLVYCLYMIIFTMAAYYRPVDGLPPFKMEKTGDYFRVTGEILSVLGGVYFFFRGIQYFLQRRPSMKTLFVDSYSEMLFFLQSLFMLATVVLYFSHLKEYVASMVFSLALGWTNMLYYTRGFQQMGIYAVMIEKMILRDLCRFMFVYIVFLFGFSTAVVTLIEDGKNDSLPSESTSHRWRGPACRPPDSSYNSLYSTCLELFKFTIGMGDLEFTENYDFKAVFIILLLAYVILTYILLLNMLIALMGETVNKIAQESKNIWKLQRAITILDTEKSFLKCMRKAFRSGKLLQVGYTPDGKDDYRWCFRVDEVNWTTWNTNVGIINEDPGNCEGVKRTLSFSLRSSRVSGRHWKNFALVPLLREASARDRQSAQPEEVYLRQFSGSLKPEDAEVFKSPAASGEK

Turning to `N#Cc1ccc(NC(=O)c2ccc(-c3ncccc3C(F)(F)F)cc2)cc1`, the pIC50 in data set [1] is 5.89; in [2], 6.38.
As to `CC(C)(C)c1ccc(NC(=O)c2ccc(-c3ncccc3-c3ncc[nH]3)cc2)cc1`, the negative logarithm of the IC50 (pIC50) in data set [1] was 6.16; in data set [2], 5.44.
The compound `CN(C)Cc1cccnc1-c1ccc(C(=O)Nc2ccc(C(C)(C)C)cc2)cc1` yielded a solubility in data set [3] of 50 µg/mL (≈ 129 µM). Further, the pIC50 in data set [1] was 6.63; in data set [2] it was 6.13.
On to `O=C(Nc1ccc(C(F)(F)F)cc1)c1ccc(-c2ncccc2C(F)(F)F)cc1Cl`, for which the pIC50 in data set [1] is 5.62; in data set [2], less than 5.40.
The like results for `COc1ccc(NC(=O)c2ccc(-c3ncccc3C)cc2)cc1` were, in that order, less than 5.40 and less than 5.40.
Taken in the same sequence, the figures for `Cc1nnc(-c2cccnc2-c2ccc(C(=O)Nc3ccc(C(C)(C)C)cc3)cc2)o1` were 7.47 and 6.41.
For the compound `FC(F)(F)c1ccc(Nc2ncnc3cc(-c4ncccc4C(F)(F)F)ccc23)cc1` [NGD-8243], in data set [4], the Vd turned out to be 12.5 L/kg. Also, the Tmax in [5] was found to be 0.7 h. The clearance in data set [6] worked out at 23 mL/min/kg. Moreover, the half-life in data set [7] is 8.1 h. The same compound returned a bioavailability in data set [8] of 99%. In addition, in [9], the outcome was inactive. The compound further gave a pIC50 in data set [1] of 8.85.
Regarding `Cc1ccc(NC(=O)c2ccc(-c3ncccc3C)cc2)cc1`, the results for the negative logarithm of the IC50 (pIC50) in [1] and in data set [2] were less than 5.40 and 5.59, respectively.
The like results for `CC(C)(C)c1ccc(NC(=O)c2ccc(-c3ncccc3[N+](=O)[O-])cc2)cc1` were, in that order, 8.30 and 8.30.
The like results for `O=C(Nc1ccc(C(F)(F)F)cc1)c1ccc(-c2ncccc2C(F)(F)F)nc1O` were, in that order, 6.12 and less than 5.40.
Taken in the same sequence, the figures for `Cc1cc(C(=O)Nc2ccc(C(F)(F)F)cc2)ccc1-c1ncccc1C` were 6.72 and 6.63.
In the case of `O=C(Nc1ccc(C(F)(F)F)cc1)c1ccc(-c2ncccc2C(F)(F)F)cc1`, in data set [9], the result was inactive. The negative-log IC50 (pIC50) in [1] is 7.59.
Turning to `CC(C)(C)c1ccc(NC(=O)c2ccc(-c3ncccc3NS(=O)(=O)c3ccccc3)cc2)cc1`, the concentration in solution in [3] (solubility) was 1 µg/mL (≈ 2.06 µM). For the same compound, the pIC50 in data set [1] was 6.78; in data set [2], 7.04.
As to `CC(C)(C)c1ccc(NC(=O)c2ccc(-c3ncccc3NS(C)(=O)=O)cc2)cc1`, the pIC50 is 7.46 in data set [1] and 6.82 in [2].
The like results for `Cc1cccnc1-c1ccc(C(=O)Nc2ccc(OC(F)(F)F)cc2)cc1` were, in that order, 6.05 and 6.01.
Consider `O=C(Nc1ccc(C(F)(F)F)cc1)c1ccc(-c2ncccc2Cl)cc1`, for which the pIC50 in data set [2] was 7.24.
For the compound `CC(C)(C)c1ccc(NC(=O)c2ccc(-c3ncccc3CO)cc2)cc1`, the pIC50 is 7.06 in [1] and 6.77 in data set [2].
The like results for `CCN(CC)Cc1cccnc1-c1ccc(C(=O)Nc2ccc(C(C)(C)C)cc2)cc1` were, in that order, 6.48 and 5.85.
Taken in the same sequence, the figures for `CCCNCc1cccnc1-c1ccc(C(=O)Nc2ccc(C(C)(C)C)cc2)cc1` were 6.19 and 5.37.
With `CN(c1cccnc1-c1ccc(C(=O)Nc2ccc(C(C)(C)C)cc2)cc1)S(C)(=O)=O`, the solubility in data set [3] was 1 µg/mL (≈ 2.29 µM). Also, the figures for the pIC50 in [1] and in data set [2] were 8.05 and 7.41, respectively.
For `O=C(Nc1ccc(C(F)(F)F)cc1)c1ccc(-c2ncccc2C(F)(F)F)nc1`, the pIC50 in data set [1] was 7.25; in [2], 7.22.
Taken in the same sequence, the figures for `CCCNc1cccnc1-c1ccc(C(=O)Nc2ccc(C(C)(C)C)cc2)cc1` were 7.43 and 6.80.
Taken in the same sequence, the figures for `CC(C)(C)c1ccc(NC(=O)c2ccc(-c3ccccn3)cc2)cc1` were 8.10 and 7.96.
The like results for `CS(=O)(=O)Nc1cc(-c2ncccc2C(F)(F)F)ccc1C(=O)Nc1ccc(C(F)(F)F)cc1` were, in that order, 6.14 and 5.99.
In the case of `CS(=O)(=O)N(c1cc(-c2ncccc2C(F)(F)F)ccc1C(=O)Nc1ccc(C(F)(F)F)cc1)S(C)(=O)=O`, the negative-log IC50 (pIC50) in data set [1] and in data set [2] was less than 5.40 each time.
With `Cc1cccnc1-c1ccc(C(=O)Nc2ccc(Br)cc2)cc1`, the pIC50 in data set [1] was 6.44; in [2] it was 6.72.
Take `CC(C)(C)c1ccc(NC(=O)c2ccc(-c3ncccc3N)cc2)cc1`: the pIC50 in data set [1] is 6.49; in [2], 6.91.
Taken in the same sequence, the figures for `Cc1cc(C(=O)Nc2ccc(C(F)(F)F)cc2)ccc1-c1ncccc1C(F)(F)F` were 6.72 and 6.59.
In the case of `Cc1cc(-c2ncccc2C)ccc1C(=O)Nc1ccc(C(F)(F)F)cc1`, the negative logarithm of the IC50 (pIC50) in data set [1] and in data set [2] was less than 5.40 throughout.
For the compound `Cc1cccnc1-c1ccc(C(=O)Nc2ccc(C(F)(F)F)cc2)cn1`, the negative logarithm of the IC50 (pIC50) in data set [1] is 6.23; in data set [2], 6.20.
Taken in the same sequence, the figures for `CC(C)(C)c1ccc(NC(=O)c2ccc(-c3ncccc3-c3nnco3)cc2)cc1` were 7.23 and 7.04.
The like results for `CC(C)(C)c1ccc(NC(=O)c2ccc(-c3ncccc3NS(=O)(=O)Cc3ccccc3)cc2)cc1` were, in that order, 6.80 and 6.42.
Taken in the same sequence, the figures for `CC(C)(C)c1ccc(NC(=O)c2ccc(-c3ncccc3CN3CCCC3)cc2)cc1` were 6.71 and 5.82.
The compound `CC(C)(C)c1ccc(NC(=O)c2ccc(-c3ncccc3C(=O)O)cc2)cc1` showed a solubility in data set [3] of 104 µg/mL (≈ 278 µM). For the same compound, the negative logarithm of the IC50 (pIC50) in data set [1] is 6.25; in data set [2], less than 5.40.
In the case of `O=C(Nc1ccc(C(F)(F)F)cc1)c1ccc(-c2ncccc2C(F)(F)F)cc1F`, the pIC50 in data set [1] was 6.46; in data set [2] it was 6.88.
In turn, `CC(C)(C)c1ccc(NC(=O)c2ccc(-c3ncccc3N(S(C)(=O)=O)S(C)(=O)=O)cc2)cc1` gave a solubility in [3] of 1 µg/mL (≈ 1.99 µM). In addition, the negative-log IC50 (pIC50) is 9.40 in data set [1] and 9.10 in data set [2].
Consider `O=C(Nc1ccc(C(F)(F)F)cn1)c1ccc(-c2ncccc2C(F)(F)F)cc1`, for which the pIC50 in [1] was 7.19; in data set [2], 7.62.
Taken in the same sequence, the figures for `Cc1cccnc1-c1ccc(C(=O)Nc2ccc(C(F)(F)F)cc2)cc1` were 7.09 and 7.19.
For `CC(C)(C)c1ccc(NC(=O)c2ccc(-c3ncccc3C#N)cc2)cc1`, the pIC50 in data set [1] was 7.89; in data set [2], 7.52.
Turning to `Cc1cccnc1-c1ccc(C(=O)Nc2ccc(C(C)(C)C)cc2)cc1`, the pIC50 in data set [1] is 8.05.
In the case of `Cc1cccnc1-c1ccc(C(=O)Nc2ccccn2)cc1`, the negative logarithm of the IC50 (pIC50) in data set [1] and in data set [2] was less than 5.40 in each case.
For `CC(C)(C)c1ccc(NC(=O)c2ccc(-c3ncccc3F)cc2)cc1`, the pIC50 in data set [1] was 9.00; in [2] it was 8.52.
The like results for `CC(C)(C)c1ccc(NC(=O)c2ccc(-c3ncccc3C(=N)N)cc2)cc1` were, in that order, less than 5.40 and less than 5.40.
Taken in the same sequence, the figures for `CC(C)(C)c1ccc(NC(=O)c2ccc(-c3ncccc3-c3nnn[nH]3)cc2)cc1` were less than 5.40 and less than 5.40.
The like results for `O=C(Nc1ccc(C(F)(F)F)cc1)c1ccc(-c2ncccc2C(F)(F)F)cc1O` were, in that order, 7.44 and 7.37.
Take `Nc1cc(-c2ncccc2C(F)(F)F)ccc1C(=O)Nc1ccc(C(F)(F)F)cc1`: the values for the negative logarithm of the IC50 (pIC50) in data set [1] and in [2] were 6.99 and 7.03, respectively.
In the case of `Cc1nc(-c2ncccc2C(F)(F)F)ccc1C(=O)Nc1ccc(C(F)(F)F)cc1`, the negative-log IC50 (pIC50) is 6.58 in data set [1] and 6.59 in [2].
The like results for `Cc1cccnc1-c1ccc(C(=O)Nc2ccc(Cl)cc2)cc1` were, in that order, 5.69 and 5.82.
Turning to `CC(C)(C)c1ccc(NC(=O)c2ccc(-c3ncccc3NO)cc2)cc1`, the pIC50 in data set [1] was 8.30; in [2], 7.31.
The like results for `COc1cc(-c2ncccc2C(F)(F)F)ccc1C(=O)Nc1ccc(C(F)(F)F)cc1` were, in that order, 5.98 and less than 5.40.
Taken in the same sequence, the figures for `Cc1cccnc1-c1ccc(C(=O)Nc2ccc(C(C)C)cc2)cc1` were 7.37 and 7.14.
Take `O=C(Nc1ccc(C(F)(F)F)cc1)c1ncc(-c2ncccc2C(F)(F)F)cn1`: the negative logarithm of the IC50 (pIC50) was 7.22 in data set [1] and 7.38 in data set [2].
For the compound `O=C(Nc1ccccc1)c1ccc(-c2ncccc2C(F)(F)F)cc1`, the pIC50 in data set [2] is less than 5.40.
Regarding `CCS(=O)(=O)Nc1cccnc1-c1ccc(C(=O)Nc2ccc(C(C)(C)C)cc2)cc1`, the concentration in solution in data set [3] (solubility) came to 1 µg/mL (≈ 2.29 µM). In addition, the pIC50 is 8.40 in [1] and 7.31 in data set [2].
As for `CC(C)(C)c1ccc(NC(=O)c2ccc(-c3ncccc3Cl)cc2)cc1`, the pIC50 in [1] is 8.70; in [2], 8.10.
In the case of `CCCCS(=O)(=O)Nc1cccnc1-c1ccc(C(=O)Nc2ccc(C(C)(C)C)cc2)cc1`, the pIC50 is 6.85 in data set [1] and 6.79 in [2].
Taken in the same sequence, the figures for `CCCOc1cccnc1-c1ccc(C(=O)Nc2ccc(C(C)(C)C)cc2)cc1` were 7.70 and 7.21.
Taken in the same sequence, the figures for `O=C(Nc1ccc(C(F)(F)F)cc1)c1ccc(-c2ncccc2C(F)(F)F)cc1[N+](=O)[O-]` were 6.65 and 6.41.
Taken in the same sequence, the figures for `CC(=O)Nc1cccnc1-c1ccc(C(=O)Nc2ccc(C(C)(C)C)cc2)cc1` were 6.54 and 5.96.
Take `Cc1cccnc1-c1ccc(C(=O)Nc2ccc(F)cc2)cc1`: the pIC50 in data set [1] and in [2] was less than 5.40 each time.
Regarding `CC(C)(C)c1ccc(NC(=O)c2ccc(-c3ncccc3NC3CCCC3)cc2)cc1`, the values for the pIC50 in data set [1] and in data set [2] were 7.36 and 6.72, respectively.
Take `Cc1cccnc1-c1ccc(C(=O)Nc2ccc(C(F)(F)F)cc2)nc1`: the results for the pIC50 in [1] and in [2] were 5.80 and 5.75, respectively.
